Experimental data: the supplement of paper PMC4628005

Assays:
Conditions in all cases: drug exposure time: 96 h
Erlotinib = compound: C#Cc1cccc(Nc2ncnc3cc(OCCOC)c(OCCOC)cc23)c1 [Erlotinib]
Experimental: (§1)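 Breast cancer cell lines were grown in RPMI 1640 with 10% FBS on collagen I-coated 96-well plates and treated for 96 h (from 24 h after seeding) with 12 dilutions per drug, in triplicate. Growth was read by sulforhodamine B total-protein staining (absorbance 570 nm) relative to diluent control, and IC50 was calculated. The top dose was 1e-5 M for most drugs; Bortezomib went to 2e-5 M and Sirolimus and 17-AAG to 2e-6 M[…].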

Docetaxel = compound: CC(=O)O[C@@]12CO[C@@H]1C[C@H](O)[C@@]1(C)C(=O)[C@H](O)C3=C(C)[C@@H](OC(=O)[C@H](O)[C@@H](NC(=O)OC(C)(C)C)c4ccccc4)C[C@@](O)([C@@H](OC(=O)c4ccccc4)[C@H]21)C3(C)C [Docetaxel]
Experimental: as §1

Paclitaxel = compound: CC(=O)O[C@H]1C(=O)[C@@]2(C)[C@H]([C@H](OC(=O)c3ccccc3)[C@]3(O)C[C@H](OC(=O)[C@H](O)[C@@H](NC(=O)c4ccccc4)c4ccccc4)C(C)=C1C3(C)C)[C@]1(OC(C)=O)CO[C@@H]1C[C@@H]2O [Paclitaxel]
Experimental: as §1

MI-219 = compound: CC(C)(C)C[C@H]1N[C@@H](C(=O)NCC[C@H](O)CO)[C@H](c2cccc(Cl)c2)[C@@]12C(=O)Nc1cc(Cl)c(F)cc12 [MI-219]
Experimental: as §1

Tamoxifen = compound: CC/C(=C(\c1ccccc1)c1ccc(OCCN(C)C)cc1)c1ccccc1 [Tamoxifen]
Experimental: as §1

Sunitinib = compound: CCN(CC)CCNC(=O)c1c(C)[nH]c(/C=C2\C(=O)Nc3ccc(F)cc32)c1C [Sunitinib]
Experimental: as §1

Methotrexate = compound: CN(Cc1cnc2nc(N)nc(N)c2n1)c1ccc(C(=O)N[C@@H](CCC(=O)O)C(=O)O)cc1 [Methotrexate]
Experimental: as §1

Sorafenib = compound: CNC(=O)c1cc(Oc2ccc(NC(=O)Nc3ccc(Cl)c(C(F)(F)F)c3)cc2)ccn1 [Sorafenib]
Experimental: as §1

Vandetanib = compound: COc1cc2/c(=N/c3ccc(Br)cc3F)nc[nH]c2cc1OCC1CCN(C)CC1 [Vandetanib]
Experimental: as §1

Gefitinib = compound: COc1cc2ncnc(Nc3ccc(F)c(Cl)c3)c2cc1OCCCN1CCOCC1 [Gefitinib]
Experimental: as §1

Nutlin-3 = compound: COc1ccc(C2=N[C@@H](c3ccc(Cl)cc3)[C@@H](c3ccc(Cl)cc3)N2C(=O)N2CCNC(=O)C2)c(OC(C)C)c1 [Nutlin-3]
Experimental: as §1

Doxorubicin = compound: COc1cccc2c1C(=O)c1c(O)c3c(c(O)c1C2=O)C[C@@](O)(C(=O)CO)C[C@@H]3O[C@H]1C[C@H](N)[C@H](O)[C@H](C)O1 [Doxorubicin]
Experimental: as §1

Lapatinib = compound: CS(=O)(=O)CCNCc1ccc(-c2ccc3ncnc(Nc4ccc(OCc5cccc(F)c5)c(Cl)c4)c3c2)o1 [Lapatinib]
Experimental: as §1

Panobinostat = compound: Cc1[nH]c2ccccc2c1CCNCc1ccc(/C=C/C(=O)NO)cc1 [Panobinostat]
Experimental: as §1

Brivanib = compound: Cc1cc2c(F)c(Oc3ncnn4cc(OC[C@@H](C)O)c(C)c34)ccc2[nH]1 [Brivanib]
Experimental: as §1

Dasatinib = compound: Cc1nc(Nc2ncc(C(=O)Nc3c(C)cccc3Cl)s2)cc(N2CCN(CCO)CC2)n1 [Dasatinib]
Experimental: as §1

Quisinostat = compound: Cn1cc(CNCC2CCN(c3ncc(C(=O)NO)cn3)CC2)c2ccccc21 [Quisinostat]
Experimental: as §1

Tipifarnib = compound: Cn1cncc1[C@@](N)(c1ccc(Cl)cc1)c1ccc2c(c1)c(-c1cccc(Cl)c1)cc(=O)n2C [Tipifarnib]
Experimental: as §1

Cisplatin = compound: N.N.[Cl][Pt][Cl] [Cisplatin]
Experimental: as §1

Azacitidine = compound: Nc1ncn([C@@H]2O[C@H](CO)[C@@H](O)[C@H]2O)c(=O)n1 [Azacitidine]
Experimental: as §1

Decitabine = compound: Nc1ncn([C@H]2C[C@H](O)[C@@H](CO)O2)c(=O)n1 [Decitabine]
Experimental: as §1

Belinostat = compound: O=C(/C=C/c1cccc(S(=O)(=O)Nc2ccccc2)c1)NO [Belinostat]
Experimental: as §1

Vorinostat = compound: O=C(CCCCCCC(=O)Nc1ccccc1)NO [Vorinostat]
Experimental: as §1

ARQ197 = compound: O=C1NC(=O)[C@@H](c2cn3c4c(cccc24)CCC3)[C@@H]1c1c[nH]c2ccccc12 [ARQ197]
Experimental: as §1

Mitoxantrone = compound: O=C1c2c(O)ccc(O)c2C(=O)c2c(NCCNCCO)ccc(NCCNCCO)c21 [Mitoxantrone]
Experimental: as §1

5-Fluorouracil = compound: O=c1[nH]cc(F)c(=O)[nH]1 [5-Fluorouracil]
Experimental: as §1

Serdemetan = compound: c1ccc2c(CCNc3ccc(Nc4ccncc4)cc3)c[nH]c2c1 [Serdemetan]
Experimental: as §1

17-AAG = compound: C=CCNC1=C2C[C@@H](C)C[C@H](OC)[C@H](O)[C@@H](C)/C=C(\C)[C@H](OC(N)=O)[C@@H](OC)/C=C\C=C(/C)C(=O)NC(=CC1=O)C2=O [17-AAG]
Experimental: (§2)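 Same SRB 96 h IC50 screen on breast cancer cell lines (RPMI 1640 + 10% FBS, collagen I-coated 96-well plates, triplicates, 12 dilutions), for drugs with a different dose range: Bortezomib up to 2e-5 M; Sirolimus and 17-AAG up to 2e-6 M. Sirolimus values at the 2e-6 M top dose are censored.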

Bortezomib = compound: CC(C)C[C@H](NC(=O)[C@H](Cc1ccccc1)NC(=O)c1cnccn1)B(O)O [Bortezomib]
Experimental: as §2

Sirolimus = compound: CO[C@H]1C[C@@H]2CC[C@@H](C)[C@@](O)(O2)C(=O)C(=O)N2CCCC[C@H]2C(=O)O[C@H]([C@H](C)C[C@@H]2CC[C@@H](O)[C@H](OC)C2)CC(=O)[C@H](C)/C=C(\C)[C@@H](O)[C@@H](OC)C(=O)[C@H](C)C[C@H](C)/C=C/C=C/C=C/1C [Sirolimus]
Experimental: as §2

| Test System | IC50 (SRB growth assay) (Erlotinib) [nM] | IC50 (SRB growth assay) (Docetaxel) [nM] | IC50 (SRB growth assay) (Paclitaxel) [nM] | IC50 (SRB growth assay) (MI-219) [nM] | IC50 (SRB growth assay) (Tamoxifen) [nM] | IC50 (SRB growth assay) (Sunitinib) [nM] | IC50 (SRB growth assay) (Methotrexate) [nM] | IC50 (SRB growth assay) (Sorafenib) [nM] | IC50 (SRB growth assay) (Vandetanib) [nM] | IC50 (SRB growth assay) (Gefitinib) [nM] | IC50 (SRB growth assay) (Nutlin-3) [nM] | IC50 (SRB growth assay) (Doxorubicin) [nM] | IC50 (SRB growth assay) (Lapatinib) [nM] | IC50 (SRB growth assay) (Panobinostat) [nM] | IC50 (SRB growth assay) (Brivanib) [nM] | IC50 (SRB growth assay) (Dasatinib) [nM] | IC50 (SRB growth assay) (Quisinostat) [nM] | IC50 (SRB growth assay) (Tipifarnib) [nM] | IC50 (SRB growth assay) (Cisplatin) [nM] | IC50 (SRB growth assay) (Azacitidine) [nM] | IC50 (SRB growth assay) (Decitabine) [nM] | IC50 (SRB growth assay) (Belinostat) [nM] | IC50 (SRB growth assay) (Vorinostat) [nM] | IC50 (SRB growth assay) (ARQ197) [nM] | IC50 (SRB growth assay) (Mitoxantrone) [nM] | IC50 (SRB growth assay) (5-Fluorouracil) [nM] | IC50 (SRB growth assay) (Serdemetan) [nM] | IC50 (SRB growth assay) (17-AAG) [nM] | IC50 (SRB growth assay) (Bortezomib) [nM] | IC50 (SRB growth assay) (Sirolimus) [nM] |
| --- | --- | --- | --- | --- | --- | --- | --- | --- | --- | --- | --- | --- | --- | --- | --- | --- | --- | --- | --- | --- | --- | --- | --- | --- | --- | --- | --- | --- | --- | --- |
| BT 20 | 6140 | 0.541 | 1.79 | > 10000 | 49.4 | > 10000 | > 10000 | 3780 | 9410 | > 10000 | > 10000 | 10.5 | 5800 | 7.93 | > 10000 | > 10000 | 8.27 | 31.9 | > 10000 | 1140 | > 10000 | 197 | 586 | 511 | 10.9 | 2830 | 2270 | 535 | 13.9 | 0.232 |
| BT 474 | 1970 | 0.891 | 2.18 | > 10000 | 4130 | 5780 | > 10000 | 3500 | 2770 | 731 | > 10000 | – | > 10000 | 3.31 | > 10000 | 611 | 1.85 | – | – | > 10000 | > 10000 | 191 | 376 | – | 23.3 | > 10000 | 2280 | 19.5 | 5.49 | 0.119 |
| BT 549 | 6100 | 0.598 | 1.44 | > 10000 | 7410 | 3290 | 22.4 | 6040 | 3410 | > 10000 | > 10000 | – | 256 | 11.1 | 6300 | 565 | 12.4 | – | – | > 10000 | 256 | 436 | 764 | – | 1.88 | 3720 | 1260 | 58.4 | 3.97 | 0.597 |
